According to paper PMC5986654, “Combined HAT/EZH2 modulation leads to cancer-selective cell death” (Oncotarget, 2018):

Legend:
CYP1A = target: T1, CYP1A (Homo sapiens, UniProt P05177); test: Cytochrome P450 inhibition, CYP1A; assay type: in vitro ADME; conditions: human liver microsomes, probe ethoxyresorufin
T1 construct: from tissue; host or cells: human liver microsomes
Procedure: This provided a dose of 2 mg free base material/kg when Cytochrome p450 inhibition (5 isoform iC50 administered iv in a 5 mL/kg dosing volume. determination) mouse terminal ip pK study ADME-Tox Cytochrome P450 inhibition of Compound MC2884 was given ip at a dose of 2 mg/kg MC2884 using human liver microsomes as an estimation to a group of 24 normally fed male CD1 mice in a 10 mL/ of in vitro metabolism. kg injection volume. Terminal blood samples (> 230 μL) MC2884 (0.1 μM–25 μM) was incubated with were taken under CO2 from groups of 3 mice at each of 8 human liver microsomes and NADPH in the presence time-points post dose (0.083, 0.25, 0.5, 1, 2, 4, 8 and 24 h) of a cytochrome P450 isoform-specific probe substrate. and placed into heparinized tubes. Samples were placed on ice For the CYP2C9, CYP2C19, CYP2D6 and CYP3A4 for no longer than 30 min before centrifugation (10,000 rpm × specific reactions, the metabolites were monitored by 3 min). […]
Cyp2C19 inhibition (0.1 mg/mL) and NADPH (1 mM) in the presence of the probe substrate midazolam (2.5 μM) for 5 min at Six test compound samples at concentrations 37° C. […] For the CYP1A incubations, the reactions microsomes (0.5 mg/mL) and NADPH (1 mM) in the were terminated by methanol, and the formation of the presence of the probe substrate mephenytoin (25 μM) metabolite, resorufin, was monitored by fluorescence for 60 min at 37° C. […]

CBP = CBP (Homo sapiens, UniProt Q92793); test: HAT in vitro assay, 10-dose IC50, CBP; assay type: biochemical; conditions: substrate Histone H3, 3 μM Acetyl-CoA; read-out: Compound IC50 CBP
Sequence of CBP (Q92793 whole entry): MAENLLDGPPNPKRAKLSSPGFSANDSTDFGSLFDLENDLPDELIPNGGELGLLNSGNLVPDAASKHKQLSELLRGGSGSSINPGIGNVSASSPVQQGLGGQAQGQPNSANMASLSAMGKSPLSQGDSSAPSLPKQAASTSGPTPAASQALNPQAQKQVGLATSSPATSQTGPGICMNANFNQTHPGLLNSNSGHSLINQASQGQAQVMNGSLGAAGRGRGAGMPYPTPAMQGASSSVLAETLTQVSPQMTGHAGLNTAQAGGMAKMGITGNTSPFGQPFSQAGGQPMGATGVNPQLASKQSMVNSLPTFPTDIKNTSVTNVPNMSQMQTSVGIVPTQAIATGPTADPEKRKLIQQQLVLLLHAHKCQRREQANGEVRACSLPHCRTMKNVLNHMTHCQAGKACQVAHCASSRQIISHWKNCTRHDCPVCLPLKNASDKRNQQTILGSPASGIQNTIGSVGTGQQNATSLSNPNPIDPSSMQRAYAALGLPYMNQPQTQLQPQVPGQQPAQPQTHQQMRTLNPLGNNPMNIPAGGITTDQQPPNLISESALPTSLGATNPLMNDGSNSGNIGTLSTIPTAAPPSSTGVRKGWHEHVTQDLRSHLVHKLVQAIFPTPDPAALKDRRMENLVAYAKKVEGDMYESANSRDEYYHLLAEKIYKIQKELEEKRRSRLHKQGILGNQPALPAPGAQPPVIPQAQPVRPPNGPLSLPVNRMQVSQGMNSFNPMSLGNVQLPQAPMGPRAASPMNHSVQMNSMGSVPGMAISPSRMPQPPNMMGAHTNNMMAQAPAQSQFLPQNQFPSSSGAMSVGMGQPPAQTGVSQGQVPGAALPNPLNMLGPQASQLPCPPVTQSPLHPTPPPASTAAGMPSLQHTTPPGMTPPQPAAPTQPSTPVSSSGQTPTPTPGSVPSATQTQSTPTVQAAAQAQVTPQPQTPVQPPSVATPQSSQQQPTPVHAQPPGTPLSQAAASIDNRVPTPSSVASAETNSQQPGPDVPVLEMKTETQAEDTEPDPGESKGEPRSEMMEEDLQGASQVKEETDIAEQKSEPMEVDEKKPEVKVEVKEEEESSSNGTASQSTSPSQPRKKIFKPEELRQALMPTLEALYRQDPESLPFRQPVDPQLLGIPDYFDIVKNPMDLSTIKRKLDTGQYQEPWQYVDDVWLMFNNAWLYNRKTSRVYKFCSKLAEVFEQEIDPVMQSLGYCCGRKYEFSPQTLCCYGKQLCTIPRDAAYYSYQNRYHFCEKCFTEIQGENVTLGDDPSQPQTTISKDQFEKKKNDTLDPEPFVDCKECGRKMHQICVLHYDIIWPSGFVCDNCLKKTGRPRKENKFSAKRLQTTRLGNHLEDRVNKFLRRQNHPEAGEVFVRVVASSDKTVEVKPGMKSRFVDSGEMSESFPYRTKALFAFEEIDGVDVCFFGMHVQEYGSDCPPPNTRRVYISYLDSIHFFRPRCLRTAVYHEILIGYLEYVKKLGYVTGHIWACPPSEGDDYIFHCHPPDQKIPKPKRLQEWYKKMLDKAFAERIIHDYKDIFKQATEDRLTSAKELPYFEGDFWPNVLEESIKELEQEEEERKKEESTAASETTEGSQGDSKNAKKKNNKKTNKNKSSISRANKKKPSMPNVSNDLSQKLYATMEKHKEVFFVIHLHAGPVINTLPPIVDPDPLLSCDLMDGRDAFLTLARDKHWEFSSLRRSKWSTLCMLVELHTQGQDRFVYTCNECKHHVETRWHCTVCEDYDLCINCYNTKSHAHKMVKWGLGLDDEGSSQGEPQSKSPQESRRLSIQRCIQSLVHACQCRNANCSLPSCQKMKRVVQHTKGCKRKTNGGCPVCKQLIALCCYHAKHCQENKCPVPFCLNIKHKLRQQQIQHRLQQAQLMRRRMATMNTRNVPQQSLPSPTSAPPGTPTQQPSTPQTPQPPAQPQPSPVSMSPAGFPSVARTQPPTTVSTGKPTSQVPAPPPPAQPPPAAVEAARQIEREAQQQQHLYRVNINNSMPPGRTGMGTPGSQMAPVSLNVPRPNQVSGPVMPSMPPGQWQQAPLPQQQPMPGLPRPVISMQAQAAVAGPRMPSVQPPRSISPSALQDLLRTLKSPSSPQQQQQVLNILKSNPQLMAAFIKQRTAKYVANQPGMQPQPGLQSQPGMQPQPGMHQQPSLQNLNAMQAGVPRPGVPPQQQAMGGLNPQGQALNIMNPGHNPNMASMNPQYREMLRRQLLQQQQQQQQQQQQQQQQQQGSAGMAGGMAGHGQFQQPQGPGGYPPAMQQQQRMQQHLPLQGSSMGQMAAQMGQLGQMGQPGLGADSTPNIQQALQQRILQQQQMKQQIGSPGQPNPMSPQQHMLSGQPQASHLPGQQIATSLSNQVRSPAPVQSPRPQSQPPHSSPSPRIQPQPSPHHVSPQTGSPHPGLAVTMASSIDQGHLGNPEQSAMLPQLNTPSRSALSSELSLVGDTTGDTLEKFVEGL
Procedure: For HAT in vitro assay, MC2884 activity was also tested in vitro and IC50 was calculated as indicated in the scheme. […] Reactions were carried out at 3 μM Acetyl-CoA. Empty cells indicate no inhibition or compound activity that could not be fit to an IC50 curve.

T1 sequence (P05177 2-516 limits assumed): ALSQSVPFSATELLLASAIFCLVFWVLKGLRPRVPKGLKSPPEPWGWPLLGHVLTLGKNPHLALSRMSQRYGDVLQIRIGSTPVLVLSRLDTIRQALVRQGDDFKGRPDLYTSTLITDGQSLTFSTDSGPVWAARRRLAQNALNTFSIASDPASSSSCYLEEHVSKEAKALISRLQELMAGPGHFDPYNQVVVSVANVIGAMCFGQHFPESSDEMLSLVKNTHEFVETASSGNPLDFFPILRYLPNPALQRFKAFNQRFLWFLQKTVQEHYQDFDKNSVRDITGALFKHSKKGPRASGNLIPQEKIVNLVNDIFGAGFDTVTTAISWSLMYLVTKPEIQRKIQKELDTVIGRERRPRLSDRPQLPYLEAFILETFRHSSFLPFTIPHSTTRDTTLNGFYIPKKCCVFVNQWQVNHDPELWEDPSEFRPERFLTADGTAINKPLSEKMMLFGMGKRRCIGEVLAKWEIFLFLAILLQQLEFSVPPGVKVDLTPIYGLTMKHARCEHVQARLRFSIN

`O=C1/C(=C/c2cccc(Br)c2)CN(Cc2ccccc2)C/C1=C\c1cccc(Br)c1` [MC2884] was tested, and the IC50 (CYP1A) was > 25 µM and the IC50 (CBP) was 3.27 µM.
